Laboratory results: patent US11912663B2, “Multi-targeted tyrosine kinase inhibitors and their pharmaceutical uses” (Shanghai AB PharmaTech Ltd., priority 2021, dated 2024)

Columns and labels:
[1] = system: BXPC3, SNU16, Hep3B 2.1-7 subcutaneous tumors; experiment: tumor suppression in nude mice with subcutaneously transplanted tumors; assay type: in vivo; settings: BXPC3, SNU16, Hep3B 2.1-7 transplants, within 3-4 weeks
Text: These preferred compounds (e.g., IIIb-08, IIIb-09, IIIb-45, IIIb-50, IIIb-55, IIIb-56, IIIb-57, IIIb-58, IIIb-60, IIIb-61, IIIb-65) are currently being used to […] in nude mice subcutaneously transplanted with pancreatic cancer cell line (BXPC3), gastric cancer cell line (SNU16), liver cancer cell line (Hep3B 2.1-7) and other tumor suppressive effects have been observed in vivo, the tumor suppression rate of subcutaneous tumors in nude mice could reach 80-110% within 3-4 weeks. […] Therefore, the preferred compounds “IIIb-08, IIIb-09, IIIb-45, IIIb-50, IIIb-55, IIIb-56, IIIb-57, IIIb-58, IIIb-60, IIIb-61, IIIb-65” designed and synthesized by the present invention not only have better inhibitory activity, but also have better safety and drug-forming properties, which are valuable for further preclinical studies such as pharmacotoxicology and clinical trials.

[2] = system: pancreatic cancer cell line (BXPC3); experiment: tumor cell proliferation inhibition (CTG), pancreatic cancer cell line; assay type: cell-based; settings: Homo sapiens, BXPC-3, 72 hours
[3] = system: cervical cancer cell lines (Hela); experiment: tumor cell proliferation inhibition (CTG), cervical cancer cell line; assay type: cell-based; settings: Homo sapiens, 72 hours
[4] = molecular target: FGFR2 (Homo sapiens (Human), UniProt P21802); experiment: kinase inhibition, Mobility-Shift Assay; assay type: biochemical; settings: 1.9 μM ATP
[5] = molecular target: RET (Homo sapiens (Human), UniProt P07949); experiment: kinase inhibition, Mobility-Shift Assay; assay type: biochemical; settings: 23 μM ATP
[6] = molecular target: VEGFR1 (FLT1) (Homo sapiens (Human), UniProt P17948); experiment: kinase inhibition, Mobility-Shift Assay; assay type: biochemical; settings: 278 μM ATP
[7] = molecular target: VEGFR2 (KDR) (Homo sapiens (Human), UniProt P35968); experiment: kinase inhibition, Mobility-Shift Assay; assay type: biochemical; settings: VEGFR2, 92 μM ATP
[8] = system: leukemia cell line (K562); experiment: tumor cell proliferation inhibition (CTG), leukemia cell line; assay type: cell-based; settings: Homo sapiens, 72 hours
[9] = MTD toxicity test in rats; assay type: in vivo; settings: 150 mg/kg
[10] = system: lung cancer cell line (A549); experiment: tumor cell proliferation inhibition (CTG), lung cancer cell line; assay type: cell-based; settings: Homo sapiens, 72 hours
[11] = system: kidney cancer cell line (Caki-1); experiment: tumor cell proliferation inhibition (CTG), kidney cancer cell line; assay type: cell-based; settings: Homo sapiens, 72 hours, read-out: Caki-1 (renal cancer) IC50
[12] = system: hepatocellular carcinoma cell line (Hep3B 2.1-7); experiment: tumor cell proliferation inhibition (CTG), hepatocellular carcinoma cell line; assay type: cell-based; settings: Homo sapiens, 72 hours
[13] = molecular target: VEGFR3 (FLT4) (Homo sapiens (Human), UniProt P35916); experiment: kinase inhibition, Mobility-Shift Assay; assay type: biochemical; settings: 84 μM ATP
[14] = system: gastric cancer cell line (SNU16); experiment: tumor cell proliferation inhibition (CTG), gastric cancer cell line; assay type: cell-based; settings: Homo sapiens, SNU-16, 72 hours, read-out: SUN16 IC50
[15] = system: prostatic cancer (PC-3); experiment: tumor cell proliferation inhibition (CTG), PC-3; assay type: cell-based; settings: 72 hours
[16] = molecular target: hERG potassium channels (Homo sapiens (Human), UniProt Q12809); experiment: in vitro inhibitory effect of hERG, whole-cell patch clamp; assay type: cell-based; settings: whole-cell recording, room temperature
Chain of hERG potassium channels (Q12809 whole entry): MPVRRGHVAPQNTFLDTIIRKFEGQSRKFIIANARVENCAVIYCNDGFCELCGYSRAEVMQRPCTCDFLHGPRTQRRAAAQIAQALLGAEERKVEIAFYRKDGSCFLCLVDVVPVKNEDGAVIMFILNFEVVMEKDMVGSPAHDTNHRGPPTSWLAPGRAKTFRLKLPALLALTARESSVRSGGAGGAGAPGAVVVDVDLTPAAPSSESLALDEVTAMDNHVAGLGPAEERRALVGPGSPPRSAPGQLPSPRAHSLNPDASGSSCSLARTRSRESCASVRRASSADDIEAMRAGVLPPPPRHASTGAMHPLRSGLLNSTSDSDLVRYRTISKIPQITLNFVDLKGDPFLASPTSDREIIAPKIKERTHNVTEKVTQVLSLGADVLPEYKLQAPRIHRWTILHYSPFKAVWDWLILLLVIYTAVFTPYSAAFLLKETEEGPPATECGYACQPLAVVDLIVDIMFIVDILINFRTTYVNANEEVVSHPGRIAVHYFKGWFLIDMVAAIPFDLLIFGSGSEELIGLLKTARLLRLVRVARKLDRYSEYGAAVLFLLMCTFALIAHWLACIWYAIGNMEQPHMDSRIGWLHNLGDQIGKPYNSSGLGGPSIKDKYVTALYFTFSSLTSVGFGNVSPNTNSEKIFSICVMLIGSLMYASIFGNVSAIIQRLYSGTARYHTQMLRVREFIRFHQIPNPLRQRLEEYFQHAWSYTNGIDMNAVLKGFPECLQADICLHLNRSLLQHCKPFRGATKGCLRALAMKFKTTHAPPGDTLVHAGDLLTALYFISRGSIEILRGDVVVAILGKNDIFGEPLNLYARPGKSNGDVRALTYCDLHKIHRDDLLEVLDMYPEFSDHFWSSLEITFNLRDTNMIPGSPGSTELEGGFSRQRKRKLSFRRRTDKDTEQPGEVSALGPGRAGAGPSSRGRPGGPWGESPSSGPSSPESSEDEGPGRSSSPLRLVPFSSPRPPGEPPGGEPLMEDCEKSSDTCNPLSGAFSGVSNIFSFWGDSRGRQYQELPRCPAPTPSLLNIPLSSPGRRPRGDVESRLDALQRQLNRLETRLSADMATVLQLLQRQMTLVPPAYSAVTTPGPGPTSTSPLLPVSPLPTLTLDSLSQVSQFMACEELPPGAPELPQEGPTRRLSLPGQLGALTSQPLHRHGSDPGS

Chain of VEGFR3 (FLT4) (P35916 25-1363): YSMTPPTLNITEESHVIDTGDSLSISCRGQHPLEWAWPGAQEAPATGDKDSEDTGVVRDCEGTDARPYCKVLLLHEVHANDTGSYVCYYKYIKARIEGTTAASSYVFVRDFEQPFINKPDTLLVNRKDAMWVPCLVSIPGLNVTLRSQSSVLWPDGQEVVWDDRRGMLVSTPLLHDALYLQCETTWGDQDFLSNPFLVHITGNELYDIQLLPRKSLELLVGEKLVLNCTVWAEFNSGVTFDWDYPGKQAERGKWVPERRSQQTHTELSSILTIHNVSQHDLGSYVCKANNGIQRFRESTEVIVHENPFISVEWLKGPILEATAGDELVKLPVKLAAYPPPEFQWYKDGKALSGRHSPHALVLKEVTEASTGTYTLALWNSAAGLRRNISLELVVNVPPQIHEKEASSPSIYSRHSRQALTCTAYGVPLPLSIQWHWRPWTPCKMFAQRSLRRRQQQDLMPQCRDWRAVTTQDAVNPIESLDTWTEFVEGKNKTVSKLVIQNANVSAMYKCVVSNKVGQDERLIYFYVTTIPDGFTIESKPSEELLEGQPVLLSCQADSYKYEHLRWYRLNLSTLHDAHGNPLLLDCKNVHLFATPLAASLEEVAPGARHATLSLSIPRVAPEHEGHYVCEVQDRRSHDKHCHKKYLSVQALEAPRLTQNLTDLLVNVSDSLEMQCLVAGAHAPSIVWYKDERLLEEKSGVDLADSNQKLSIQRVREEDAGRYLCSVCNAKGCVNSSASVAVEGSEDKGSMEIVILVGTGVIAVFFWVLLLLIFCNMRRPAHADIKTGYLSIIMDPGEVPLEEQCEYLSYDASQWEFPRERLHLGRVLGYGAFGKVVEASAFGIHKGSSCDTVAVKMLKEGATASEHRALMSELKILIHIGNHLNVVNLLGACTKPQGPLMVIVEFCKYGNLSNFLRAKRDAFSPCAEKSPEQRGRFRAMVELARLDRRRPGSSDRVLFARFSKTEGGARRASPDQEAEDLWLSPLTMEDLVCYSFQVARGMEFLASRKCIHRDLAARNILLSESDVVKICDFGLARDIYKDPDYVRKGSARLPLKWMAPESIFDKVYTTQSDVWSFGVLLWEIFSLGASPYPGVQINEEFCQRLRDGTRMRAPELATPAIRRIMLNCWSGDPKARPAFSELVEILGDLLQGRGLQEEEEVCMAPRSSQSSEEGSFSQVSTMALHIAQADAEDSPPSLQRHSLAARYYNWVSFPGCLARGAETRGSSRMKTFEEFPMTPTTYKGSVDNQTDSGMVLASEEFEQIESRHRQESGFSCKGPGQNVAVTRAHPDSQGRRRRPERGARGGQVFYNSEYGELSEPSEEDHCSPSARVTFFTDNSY
Chain of RET (P07949 29-1114): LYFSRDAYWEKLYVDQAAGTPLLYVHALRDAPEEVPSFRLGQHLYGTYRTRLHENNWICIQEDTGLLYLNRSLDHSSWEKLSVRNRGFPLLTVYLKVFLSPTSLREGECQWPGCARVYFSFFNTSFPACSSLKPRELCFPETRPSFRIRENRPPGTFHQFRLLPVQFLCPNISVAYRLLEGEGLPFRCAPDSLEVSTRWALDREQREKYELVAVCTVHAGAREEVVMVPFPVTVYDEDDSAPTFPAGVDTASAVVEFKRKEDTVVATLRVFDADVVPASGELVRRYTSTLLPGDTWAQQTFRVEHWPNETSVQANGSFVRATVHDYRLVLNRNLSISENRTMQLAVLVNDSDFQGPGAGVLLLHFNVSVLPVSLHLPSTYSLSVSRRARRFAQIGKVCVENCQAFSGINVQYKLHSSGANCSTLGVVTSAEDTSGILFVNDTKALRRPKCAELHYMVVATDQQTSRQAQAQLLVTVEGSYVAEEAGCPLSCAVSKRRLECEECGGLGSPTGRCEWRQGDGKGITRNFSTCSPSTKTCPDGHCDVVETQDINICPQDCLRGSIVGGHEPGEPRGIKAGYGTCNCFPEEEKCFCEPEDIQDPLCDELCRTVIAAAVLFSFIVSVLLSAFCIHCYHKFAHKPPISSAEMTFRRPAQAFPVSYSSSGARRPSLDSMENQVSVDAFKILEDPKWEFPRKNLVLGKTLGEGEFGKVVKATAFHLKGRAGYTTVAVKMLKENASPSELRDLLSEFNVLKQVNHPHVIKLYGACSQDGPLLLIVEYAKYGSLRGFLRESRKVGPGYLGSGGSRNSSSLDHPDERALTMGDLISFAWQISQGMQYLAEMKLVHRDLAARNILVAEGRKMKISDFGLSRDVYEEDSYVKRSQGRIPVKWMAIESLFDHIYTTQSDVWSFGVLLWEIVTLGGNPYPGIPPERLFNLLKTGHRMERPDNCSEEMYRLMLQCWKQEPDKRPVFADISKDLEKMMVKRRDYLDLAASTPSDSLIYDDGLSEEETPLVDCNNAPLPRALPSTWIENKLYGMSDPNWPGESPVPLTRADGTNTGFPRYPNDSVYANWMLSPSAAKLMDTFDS
Chain of VEGFR1 (FLT1) (P17948 27-1338): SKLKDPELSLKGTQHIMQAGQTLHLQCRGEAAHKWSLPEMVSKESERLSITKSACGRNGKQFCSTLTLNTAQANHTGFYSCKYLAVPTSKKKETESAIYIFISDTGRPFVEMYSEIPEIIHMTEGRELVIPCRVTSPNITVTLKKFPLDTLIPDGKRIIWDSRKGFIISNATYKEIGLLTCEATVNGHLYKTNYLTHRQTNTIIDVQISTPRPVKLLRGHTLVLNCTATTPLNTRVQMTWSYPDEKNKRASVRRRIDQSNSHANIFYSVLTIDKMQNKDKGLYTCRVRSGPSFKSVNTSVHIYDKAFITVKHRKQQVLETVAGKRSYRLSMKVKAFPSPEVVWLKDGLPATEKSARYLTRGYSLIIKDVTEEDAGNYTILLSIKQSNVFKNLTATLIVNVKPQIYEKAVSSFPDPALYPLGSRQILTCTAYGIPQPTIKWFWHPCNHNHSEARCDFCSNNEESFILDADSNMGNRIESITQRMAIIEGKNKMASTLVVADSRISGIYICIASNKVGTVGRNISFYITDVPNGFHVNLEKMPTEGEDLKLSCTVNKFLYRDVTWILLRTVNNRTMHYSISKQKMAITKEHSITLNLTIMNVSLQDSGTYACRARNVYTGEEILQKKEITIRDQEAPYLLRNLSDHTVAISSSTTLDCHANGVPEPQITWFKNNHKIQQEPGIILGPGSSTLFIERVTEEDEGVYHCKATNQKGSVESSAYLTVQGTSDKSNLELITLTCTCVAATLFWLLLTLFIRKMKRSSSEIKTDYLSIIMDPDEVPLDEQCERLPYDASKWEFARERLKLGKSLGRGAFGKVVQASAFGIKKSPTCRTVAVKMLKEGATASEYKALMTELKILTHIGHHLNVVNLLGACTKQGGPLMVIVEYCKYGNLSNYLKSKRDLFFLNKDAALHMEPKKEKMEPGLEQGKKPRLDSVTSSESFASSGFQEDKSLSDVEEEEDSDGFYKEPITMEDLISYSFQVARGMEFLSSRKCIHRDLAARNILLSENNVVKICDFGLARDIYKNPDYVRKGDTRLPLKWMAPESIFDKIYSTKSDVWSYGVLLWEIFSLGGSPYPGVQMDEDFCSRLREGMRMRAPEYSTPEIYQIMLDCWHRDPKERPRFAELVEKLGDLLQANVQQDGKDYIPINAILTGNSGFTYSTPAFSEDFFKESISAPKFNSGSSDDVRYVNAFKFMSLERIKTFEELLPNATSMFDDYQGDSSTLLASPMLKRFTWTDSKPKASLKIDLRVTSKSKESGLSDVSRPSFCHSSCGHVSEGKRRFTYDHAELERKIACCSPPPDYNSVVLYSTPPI

For `NC(=O)c1cc2c(Oc3c(F)cc(NC(=O)NC4CC4)c(Cl)c3F)ccnc2cc1OCC(F)(F)F` [IIIb-57], the “tumor suppression rate of subcutaneous tumors” value [1] was 80-110%, the IC50 [2] was < 5000 nM and the IC50 [3] was < 5000 nM. The IC50 [4] was < 50 nM, the IC50 [5] was < 5 nM and the IC50 [6] was < 5 nM. The IC50 [7] was < 5 nM, the IC50 [8] was < 5000 nM and the “MTD toxicity test, clinical outcome” value ([9]; rat, in vivo) was “no abnormalities such as death”. The “autopsy results of organs” value ([9]; rats, QD, 14 days, heart, liver, lungs, kidneys, stomach, intestines and other organs) was “did not reveal any abnormal changes”, the IC50 [10] was < 2500 nM and the IC50 [11] was < 2500 nM. For the same molecule, the IC50 [12] was < 2500 nM, the IC50 [13] was < 5 nM and the IC50 [14] was < 5000 nM. The IC50 [15] was 5000 to 10000 nM and the IC50 [16] was > 30000 nM.
